Usually EC50 stands for the concentration that produces a half-maximal response.

What all share (format): biochemical
In experiment [1] the target is T1, NMDAR2B expressing HEK cell membranes (Homo sapiens, UniProt Q05586+Q13224).
T1 construct: expressed in transfected cells; host or cells: HEK cells (membrane extract)
The experiment can be described thus: NMDAR agonist assay, [3H]MK-801 binding, NMDAR2B. Set-up: key to NMDAR2B B: log EC50: 0=−; ≥1×10^−9 M (e.g., −8)=+; <1×10^−9 M (e.g., −10)=++. The note with it: 50 μM glutamate; for EC50: read-out: NMDAR2B B: log EC50 (converted); for Emax: 0.25 h, read-out: NMDAR2B A: % maximal [3H]MK-801 binding relative to 1 mM glycine. How it is done:
(§1) Assays were conducted as described by Moskal et al., “GLYX-13: a monoclonal antibody-derived peptide that acts as an N-methyl-D-aspartate receptor modulator,” Neuropharmacology, 49, 1077-87, 2005. These studies were designed to determine if the test compounds act to facilitate NMDAR activation in NMDAR2A, NMDAR2B, NMDAR2C or NMDAR2D expressing HEK cell membranes as measured by increases in [^3H]MK-801 binding.
(§2) In the assay, 300 μg of NMDAR expressing HEK cell membrane extract protein was preincubated for 15 minutes at 25° C. in the presence of saturating concentrations of glutamate (50 μM) and varying concentrations of test compound (1×10^−15 M-1×10^−7 M), or 1 mM glycine. Following the addition of 0.3 μCi of [^3H]MK-801 (22.5 Ci/mmol), reactions were again incubated for 15 minutes at 25° C. (nonequilibrium conditions). Bound and free [^3H]MK-801 were separated via rapid filtration using a Brandel apparatus.
(§3) In analyzing the data, the DPM (disintegrations per minute) of [^3H]MK-801 remaining on the filter were measured for each concentration of test compound or for 1 mM glycine. The DPM values for each concentration of a ligand (N=2) were averaged. The baseline value was determined from the best fit curve of the DPM values modeled using the GraphPad program and the log(agonist) vs. response(three parameters) algorithm was then subtracted from all points in the dataset. The % maximal [^3H]MK-801 binding was then calculated relative to that of 1 mM glycine: all baseline subtracted DPM values were divided by the average value for 1 mM glycine. The EC50 and % maximal activity were then obtained from the best fit curve of the % maximal [^3H]MK-801 binding data modelled using the GraphPad program and the log(agonist) vs. response(three parameters) algorithm.
(§4) The tables below summarize the results for the wild type NMDAR agonists NMDAR2A, NMDAR2B, NMDAR2C, and NMDAR2D, and whether the compound is not an agonist (−), is an agonist (+), or is a strong agonist (++), where column A is based on the % maximal [^3H]MK-801 binding relative to 1 mM glycine (−=0; <100%=+; and >100%=++); and column B is based on log EC50 values (0=−; ≥1×10^−9 M (e.g., −8)=+; and <1×10^−9 M (e.g., −10)=++).

The target in experiment [2] is T2, NMDAR2A expressing HEK cell membranes (Homo sapiens, UniProt Q05586+Q12879).
T2 construct: expressed in transfected cells; host or cells: HEK cells (membrane extract)
The experiment can be described thus: NMDAR agonist assay, [3H]MK-801 binding, NMDAR2A. Set-up: key to NMDAR2A B: log EC50: 0=−; ≥1×10^−9 M (e.g., −8)=+; <1×10^−9 M (e.g., −10)=++. The note with it: 50 μM glutamate; for Emax: 0.25 h, read-out: NMDAR2A A: % maximal [3H]MK-801 binding relative to 1 mM glycine; for EC50: read-out: NMDAR2A B: log EC50 (converted). How it is done: as §1, §2, §3, §4

The target of experiment [3] is T3, NMDAR2A expressing HEK cell membranes (Homo sapiens, UniProt Q12879).
T3 construct: expressed in transfected cells; host or cells: HEK cells (membrane extract)
Description: NMDAR agonist assay, [3H]MK-801 binding, NMDAR2A. More on the design: key to NMDAR2A B: log EC50: 0=−; ≥1×10^−9 M (e.g., −8)=+; <1×10^−9 M (e.g., −10)=++. The note with it: 50 μM glutamate. How it is done:
as §1, §2, §3, §4

Experiment [4] deals with T4, NMDAR2B expressing HEK cell membranes (Homo sapiens, UniProt Q13224).
T4 construct: expressed in transfected cells; host or cells: HEK cells (membrane extract)
The experiment can be described thus: NMDAR agonist assay, [3H]MK-801 binding, NMDAR2B. Set-up: key to NMDAR2B B: log EC50: 0=−; ≥1×10^−9 M (e.g., −8)=+; <1×10^−9 M (e.g., −10)=++. The conditions noted are these: 50 μM glutamate. How it is done:
as §1, §2, §3, §4

T3 sequence (Q12879 23-1464, other chains not shown): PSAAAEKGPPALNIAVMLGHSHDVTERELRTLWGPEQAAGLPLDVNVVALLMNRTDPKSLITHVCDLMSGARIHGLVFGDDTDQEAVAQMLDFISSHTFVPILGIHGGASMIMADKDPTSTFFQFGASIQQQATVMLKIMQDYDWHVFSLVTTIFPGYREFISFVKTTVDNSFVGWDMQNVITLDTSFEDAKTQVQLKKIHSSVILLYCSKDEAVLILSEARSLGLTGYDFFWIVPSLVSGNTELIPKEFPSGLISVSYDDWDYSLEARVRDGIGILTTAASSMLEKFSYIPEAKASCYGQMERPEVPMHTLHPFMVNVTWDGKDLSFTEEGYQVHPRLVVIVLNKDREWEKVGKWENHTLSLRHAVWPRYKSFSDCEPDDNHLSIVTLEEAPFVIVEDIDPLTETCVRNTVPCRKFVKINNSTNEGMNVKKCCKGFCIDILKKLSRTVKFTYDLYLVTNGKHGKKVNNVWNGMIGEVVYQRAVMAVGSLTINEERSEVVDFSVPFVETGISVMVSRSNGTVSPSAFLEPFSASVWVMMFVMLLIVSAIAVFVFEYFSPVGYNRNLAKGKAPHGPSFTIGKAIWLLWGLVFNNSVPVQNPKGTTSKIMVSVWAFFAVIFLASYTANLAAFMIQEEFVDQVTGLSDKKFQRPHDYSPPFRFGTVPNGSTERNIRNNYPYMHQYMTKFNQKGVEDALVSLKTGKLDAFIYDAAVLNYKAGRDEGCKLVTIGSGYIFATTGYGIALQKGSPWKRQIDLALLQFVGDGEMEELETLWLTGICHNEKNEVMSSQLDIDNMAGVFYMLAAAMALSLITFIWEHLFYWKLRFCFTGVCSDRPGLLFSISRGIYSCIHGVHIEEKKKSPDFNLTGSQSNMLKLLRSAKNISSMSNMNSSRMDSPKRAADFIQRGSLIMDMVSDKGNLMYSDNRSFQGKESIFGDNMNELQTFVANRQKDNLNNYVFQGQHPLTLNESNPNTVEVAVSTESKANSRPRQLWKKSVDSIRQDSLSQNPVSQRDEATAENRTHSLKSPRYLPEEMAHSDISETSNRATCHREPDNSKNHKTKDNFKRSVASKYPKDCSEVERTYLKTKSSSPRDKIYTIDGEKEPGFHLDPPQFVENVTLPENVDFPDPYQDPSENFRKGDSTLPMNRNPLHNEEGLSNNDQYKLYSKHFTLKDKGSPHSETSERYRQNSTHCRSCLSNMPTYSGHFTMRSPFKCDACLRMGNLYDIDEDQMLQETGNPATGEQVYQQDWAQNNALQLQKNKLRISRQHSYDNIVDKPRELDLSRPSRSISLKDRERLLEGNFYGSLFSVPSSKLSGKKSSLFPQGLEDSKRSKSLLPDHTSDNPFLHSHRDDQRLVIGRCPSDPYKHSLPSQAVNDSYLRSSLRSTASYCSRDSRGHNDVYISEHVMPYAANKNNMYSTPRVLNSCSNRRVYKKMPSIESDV
T2 sequence (Q12879 23-1464, other chains not shown): as above
T1 sequence (Q13224 27-1484, other chains not shown): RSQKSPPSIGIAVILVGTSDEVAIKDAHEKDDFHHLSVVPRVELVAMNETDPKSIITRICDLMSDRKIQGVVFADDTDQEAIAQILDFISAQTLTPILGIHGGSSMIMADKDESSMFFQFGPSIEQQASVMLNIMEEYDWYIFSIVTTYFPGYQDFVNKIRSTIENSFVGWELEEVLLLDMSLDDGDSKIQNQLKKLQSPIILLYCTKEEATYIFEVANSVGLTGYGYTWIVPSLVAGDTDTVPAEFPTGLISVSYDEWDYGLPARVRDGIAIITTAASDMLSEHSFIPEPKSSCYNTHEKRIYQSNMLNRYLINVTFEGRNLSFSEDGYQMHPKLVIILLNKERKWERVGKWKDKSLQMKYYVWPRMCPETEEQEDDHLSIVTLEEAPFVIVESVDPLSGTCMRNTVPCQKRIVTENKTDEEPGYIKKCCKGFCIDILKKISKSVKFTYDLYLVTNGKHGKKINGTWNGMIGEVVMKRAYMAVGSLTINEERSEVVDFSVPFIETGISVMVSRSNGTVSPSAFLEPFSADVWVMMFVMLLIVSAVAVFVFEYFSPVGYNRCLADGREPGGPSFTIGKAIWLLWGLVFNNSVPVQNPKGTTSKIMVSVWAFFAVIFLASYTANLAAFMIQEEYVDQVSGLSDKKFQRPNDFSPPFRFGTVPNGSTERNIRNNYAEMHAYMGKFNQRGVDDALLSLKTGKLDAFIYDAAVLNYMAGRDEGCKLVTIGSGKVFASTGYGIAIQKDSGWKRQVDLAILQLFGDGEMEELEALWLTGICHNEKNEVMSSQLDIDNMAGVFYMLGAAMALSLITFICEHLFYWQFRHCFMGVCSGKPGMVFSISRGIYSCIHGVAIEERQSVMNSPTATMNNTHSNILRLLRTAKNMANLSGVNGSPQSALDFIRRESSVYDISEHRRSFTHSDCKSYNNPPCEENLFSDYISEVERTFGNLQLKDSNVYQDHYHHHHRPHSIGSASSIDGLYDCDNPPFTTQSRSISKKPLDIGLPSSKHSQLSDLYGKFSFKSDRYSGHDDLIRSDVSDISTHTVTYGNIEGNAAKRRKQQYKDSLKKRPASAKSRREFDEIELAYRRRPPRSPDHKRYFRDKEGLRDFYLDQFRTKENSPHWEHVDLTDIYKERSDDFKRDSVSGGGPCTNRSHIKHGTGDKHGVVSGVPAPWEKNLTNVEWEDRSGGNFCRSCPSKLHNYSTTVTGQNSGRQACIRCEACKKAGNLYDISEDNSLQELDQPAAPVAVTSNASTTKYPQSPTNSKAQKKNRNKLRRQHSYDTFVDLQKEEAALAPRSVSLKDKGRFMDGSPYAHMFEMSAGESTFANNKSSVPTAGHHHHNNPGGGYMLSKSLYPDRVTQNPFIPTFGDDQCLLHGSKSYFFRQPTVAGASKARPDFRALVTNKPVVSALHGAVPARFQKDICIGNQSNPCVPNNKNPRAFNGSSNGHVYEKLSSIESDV

With `CC1CC(=O)N(c2ccc(F)cc2)C12CN(Cc1ccccc1)C2=O` (single isomer, unassigned) [BX, 2-benzyl-5-(4-fluorophenyl)-8-methyl-2,5-diazaspiro[3.4]octane-1,6-dione], in experiment [1], the EC50 was less than 1 nM and the Emax was less than 100%. Moreover, in experiment [2], the Emax was determined as 0%. For the same molecule, the “NMDAR2A B: log EC50” value in experiment [3] is “−”.
For the molecule `CC1CC(=O)N(c2ccc(F)cc2)C12CN(CC(N)=O)C2=O` (single isomer, unassigned) [CF, 2-(5-(4-fluorophenyl)-8-methyl-1,6-dioxo-2,5-diazaspiro[3.4]octan-2-yl)acetamide], in experiment [1], the EC50 was less than 1 nM and the Emax was less than 100%. For the same molecule, the Emax in experiment [2] was 0%. Besides, the “NMDAR2A B: log EC50” value in experiment [3] is given as “−”.
For `CC1C(N)C(=O)N(C)C12CN(Cc1ccccc1)C2=O` (single isomer, unassigned) [CG, 7-amino-2-benzyl-5,8-dimethyl-2,5-diazaspiro[3.4]octane-1,6-dione], in that order: less than 1 nM, less than 100%, 0% and “−”.
On to `COc1ccc(CN2CC3(CCNC(=S)C3)C2=O)cc1` (single isomer, unassigned) [CN, 2-(4-methoxybenzyl)-6-thioxo-2,7-diazaspiro[3.5]nonan-1-one], for which, in experiment [1], the EC50 is less than 1 nM and the Emax was less than 100%. In addition, in experiment [2], the half-maximal effective concentration (EC50) is less than 1 nM and the Emax was less than 100%.
For the molecule `COc1ccc(CN2CC3(CCNC(=S)C3)C2=S)cc1` (single isomer, unassigned) [CO, 2-(4-methoxybenzyl)-2,7-diazaspiro[3.5]nonane-1,6-dithione], in experiment [4], the “NMDAR2B A: % maximal [3H]MK-801 binding relative to 1 mM glycine” value is “− (−=0)” and the “NMDAR2B B: log EC50” value was “−”. In addition, in experiment [2], the EC50 is less than 1 nM and the Emax is less than 100%.
For the molecule `O=C1CC2(CCN1)CN(Cc1ccccc1)C2=O` (single isomer, unassigned) [CU, 2-benzyl-2,7-diazaspiro[3.5]nonane-1,6-dione], in experiment [1], the EC50 is less than 1 nM and the Emax was less than 100%. In addition, in experiment [3], the “NMDAR2A A: % maximal [3H]MK-801 binding relative to 1 mM glycine” value was “− (−=0)” and the “NMDAR2A B: log EC50” value is “−”.
Take `CN1CCC2(CC1=O)CN(Cc1ccccc1)C2=O` (single isomer, unassigned) [CW, 2-benzyl-7-methyl-2,7-diazaspiro[3.5]nonane-1,6-dione]: the EC50 in experiment [1] and in experiment [2] was less than 1 nM each time. For the same molecule, the Emax in experiment [1] was greater than 100%; in experiment [2], less than 100%.
`CNC(=O)[C@H]([C@@H](C)O)N1CC2(CCNC(=O)C2)C1=O` (single isomer, unassigned) [DB]: in experiment [1], the EC50 was less than 1 nM. Besides, the figures for the Emax in experiment [1] and in experiment [2] were greater than 100% and 0%, respectively. In addition, the “NMDAR2A B: log EC50” value in experiment [3] was “−”.
As for `NC(=O)CN1CC2(CCNC(=O)C2)C1=O` (single isomer, unassigned) [DC, 2-(1,6-dioxo-2,7-diazaspiro[3.5]nonan-2-yl)acetamide], the EC50 in experiment [1] and in experiment [2] was less than 1 nM in each case. The Emax in experiment [1] was less than 100%. The “NMDAR2A A: % maximal [3H]MK-801 binding relative to 1 mM glycine” value in experiment [3] is “+ (<100%=+)”.
As to `CC(C)CN1CC2(CCNC(=O)C2)C1=O` (single isomer, unassigned) [DE, 2-isobutyl-2,7-diazaspiro[3.5]nonane-1,6-dione], in experiment [1], the EC50 was less than 1 nM and the Emax was less than 100%. Further, in experiment [2], the EC50 was less than 1 nM and the Emax is less than 100%.
Consider `CC1CC(=O)N(C)C12CN(CC(N)=O)C2=O` (single isomer, unassigned) [DI, 2-(5,8-dimethyl-1,6-dioxo-2,5-diazaspiro[3.4]octan-2-yl)acetamide], for which, in experiment [1], the EC50 was less than 1 nM and the Emax is less than 100%. Further, the EC50 in experiment [2] was less than 1 nM. Also, in experiment [3], the “NMDAR2A A: % maximal [3H]MK-801 binding relative to 1 mM glycine” value is reported as “+ (<100%=+)”.
